Measured values: ChEMBL document CHEMBL2440080, “Synthesis and biological evaluation of novel acylhydrazone derivatives as potential antitumor agents” (Bioorg Med Chem, 2013)

How the values were obtained:
Format in all cases: functional
CAKI-1 = test: Cytotoxicity against human CAKI-1 cells after 48 hrs by sulforhodamine B assay; conditions: CAKI-1, 48 h
T47D = test: Cytotoxicity against human T47D cells after 48 hrs by sulforhodamine B assay
BT-549 = test: Cytotoxicity against human BT549 cells after 48 hrs by sulforhodamine B assay; conditions: BT-549, 48 h
[1] = Cytotoxicity against human Hs 578T cells after 48 hrs by sulforhodamine B assay
MDA-MB-435 = test: Cytotoxicity against human MDA-MB-435 cells after 48 hrs by sulforhodamine B assay; conditions: MDA-MB-435, 48 h
NCI/ADR-RES = test: Cytotoxicity against human NCI/ADR-RES cells after 48 hrs by sulforhodamine B assay
MDA-MB-231 = test: Cytotoxicity against human MDA-MB-231 cells after 48 hrs by sulforhodamine B assay; conditions: MDA-MB-231, 48 h
DU-145 = test: Cytotoxicity against human DU145 cells after 48 hrs by sulforhodamine B assay; conditions: DU-145, 48 h
MCF7 = test: Cytotoxicity against human MCF7 cells after 48 hrs by sulforhodamine B assay; conditions: MCF7, 48 h
UO-31 = test: Cytotoxicity against human UO31 cells after 48 hrs by sulforhodamine B assay; conditions: UO-31, 48 h
PC-3 = test: Cytotoxicity against human PC3 cells after 48 hrs by sulforhodamine B assay; conditions: PC-3, 48 h
SN12C = test: Cytotoxicity against human SN12C cells after 48 hrs by sulforhodamine B assay
TK-10 = test: Cytotoxicity against human TK10 cells after 48 hrs by sulforhodamine B assay; conditions: TK-10, 48 h
ACHN = test: Cytotoxicity against human ACHN cells after 48 hrs by sulforhodamine B assay
RXF 393 = test: Cytotoxicity against human RXF393 cells after 48 hrs by sulforhodamine B assay; conditions: RXF 393, 48 h
A498 = test: Cytotoxicity against human A498 cells after 48 hrs by sulforhodamine B assay; conditions: A498, 48 h
786-0 = test: Cytotoxicity against human 786-0 cells after 48 hrs by sulforhodamine B assay; conditions: 786-0, 48 h
OVCAR-8 = test: Cytotoxicity against human OVCAR8 cells after 48 hrs by sulforhodamine B assay; conditions: OVCAR-8, 48 h
SK-OV-3 = test: Cytotoxicity against human SKOV3 cells after 48 hrs by sulforhodamine B assay; conditions: SK-OV-3, 48 h
OVCAR-4 = test: Cytotoxicity against human OVCAR4 cells after 48 hrs by sulforhodamine B assay; conditions: OVCAR-4, 48 h
OVCAR-5 = test: Cytotoxicity against human OVCAR5 cells after 48 hrs by sulforhodamine B assay; conditions: OVCAR-5, 48 h
IGROV-1 = test: Cytotoxicity against human IGROV1 cells after 48 hrs by sulforhodamine B assay; conditions: IGROV-1, 48 h
OVCAR-3 = test: Cytotoxicity against human OVCAR3 cells after 48 hrs by sulforhodamine B assay; conditions: OVCAR-3, 48 h
UACC-257 = test: Cytotoxicity against human UACC257 cells after 48 hrs by sulforhodamine B assay; conditions: UACC-257, 48 h
UACC-62 = test: Cytotoxicity against human UACC62 cells after 48 hrs by sulforhodamine B assay; conditions: UACC-62, 48 h
SK-MEL-28 = test: Cytotoxicity against human SK-MEL-28 cells after 48 hrs by sulforhodamine B assay; conditions: SK-MEL-28, 48 h
SK-MEL-5 = test: Cytotoxicity against human SK-MEL-5 cells after 48 hrs by sulforhodamine B assay; conditions: SK-MEL-5, 48 h
M14 = test: Cytotoxicity against human M14 cells after 48 hrs by sulforhodamine B assay; conditions: M14, 48 h
SK-MEL-2 = test: Cytotoxicity against human SK-MEL-2 cells after 48 hrs by sulforhodamine B assay; conditions: SK-MEL-2, 48 h
LOX IMVI = test: Cytotoxicity against human LOXIMVI cells after 48 hrs by sulforhodamine B assay
Malme-3M = test: Cytotoxicity against human MALME-3M cells after 48 hrs by sulforhodamine B assay
SNB-75 = test: Cytotoxicity against human SNB75 cells after 48 hrs by sulforhodamine B assay; conditions: SNB-75, 48 h
U-251 = test: Cytotoxicity against human U251 cells after 48 hrs by sulforhodamine B assay; conditions: U-251, 48 h
SF-539 = test: Cytotoxicity against human SF539 cells after 48 hrs by sulforhodamine B assay; conditions: SF-539, 48 h
SNB-19 = test: Cytotoxicity against human SNB19 cells after 48 hrs by sulforhodamine B assay; conditions: SNB-19, 48 h
SF-295 = test: Cytotoxicity against human SF295 cells after 48 hrs by sulforhodamine B assay; conditions: SF-295, 48 h
SW-620 = test: Cytotoxicity against human SW620 cells after 48 hrs by sulforhodamine B assay; conditions: SW-620, 48 h
SF-268 = test: Cytotoxicity against human SF268 cells after 48 hrs by sulforhodamine B assay; conditions: SF-268, 48 h
HT-29 = test: Cytotoxicity against human HT-29 cells after 48 hrs by sulforhodamine B assay; conditions: HT-29, 48 h
KM12 = test: Cytotoxicity against human KM12 cells after 48 hrs by sulforhodamine B assay; conditions: KM12, 48 h
HCT-116 = test: Cytotoxicity against human HCT116 cells after 48 hrs by sulforhodamine B assay; conditions: HCT-116, 48 h
HCT-15 = test: Cytotoxicity against human HCT15 cells after 48 hrs by sulforhodamine B assay; conditions: HCT-15, 48 h
HCC 2998 = test: Cytotoxicity against human HCC2998 cells after 48 hrs by sulforhodamine B assay; conditions: HCC 2998, 48 h
NCI-H522 = test: Cytotoxicity against human NCI-H522 cells after 48 hrs by sulforhodamine B assay; conditions: NCI-H522, 48 h
COLO 205 = test: Cytotoxicity against human COLO205 cells after 48 hrs by sulforhodamine B assay; conditions: COLO 205, 48 h
NCI-H460 = test: Cytotoxicity against human NCI-H460 cells after 48 hrs by sulforhodamine B assay; conditions: NCI-H460, 48 h
NCI-H23 = test: Cytotoxicity against human NCI-H23 cells after 48 hrs by sulforhodamine B assay; conditions: NCI-H23, 48 h
NCI-H322M = test: Cytotoxicity against human NCI-H322M cells after 48 hrs by sulforhodamine B assay
HOP-92 = test: Cytotoxicity against human HOP92 cells after 48 hrs by sulforhodamine B assay; conditions: HOP-92, 48 h
NCI-H226 = test: Cytotoxicity against human NCI-H226 cells after 48 hrs by sulforhodamine B assay; conditions: NCI-H226, 48 h
[2] = Cytotoxicity against human EKVX cells after 48 hrs by sulforhodamine B assay
HOP-62 = test: Cytotoxicity against human HOP62 cells after 48 hrs by sulforhodamine B assay; conditions: HOP-62, 48 h
SR = test: Cytotoxicity against human SR cells after 48 hrs by sulforhodamine B assay
A549 = test: Cytotoxicity against human A549/ATCC cells after 48 hrs by sulforhodamine B assay; conditions: A549, 48 h
RPMI-8226 = test: Cytotoxicity against human RPMI8226 cells after 48 hrs by sulforhodamine B assay; conditions: RPMI-8226, 48 h
K562 = test: Cytotoxicity against human K562 cells after 48 hrs by sulforhodamine B assay; conditions: K562, 48 h
MOLT-4 = test: Cytotoxicity against human MOLT4 cells after 48 hrs by sulforhodamine B assay; conditions: MOLT-4, 48 h
CCRF-CEM = test: Cytotoxicity against human CCRF-CEM cells after 48 hrs by sulforhodamine B assay
HL-60(TB) = test: Cytotoxicity against human HL-60(TB) cells after 48 hrs by sulforhodamine B assay; conditions: HL-60, 48 h

Compound: CCN(CC)c1ccc(/C=N/NC(=O)c2ccc(Nc3ccnc(C(F)(F)F)c3)cc2)c(O)c1
- GI50 (CAKI-1): 251 nM
- GI50 (T47D): 331 nM
- GI50 (BT-549): 501 nM
- GI50 [1]: 219 nM
- GI50 (MDA-MB-435): 490 nM
- GI50 (NCI/ADR-RES): 1000 nM
- GI50 (MDA-MB-231): 398 nM
- GI50 (DU-145): 501 nM
- GI50 (MCF7): 295 nM
- GI50 (UO-31): 57.5 nM
- GI50 (PC-3): 501 nM
- GI50 (SN12C): 363 nM
- GI50 (TK-10): 501 nM
- GI50 (ACHN): 158 nM
- GI50 (RXF 393): 200 nM
- GI50 (A498): 316 nM
- GI50 (786-0): 182 nM
- GI50 (OVCAR-8): 398 nM
- GI50 (SK-OV-3): 234 nM
- GI50 (OVCAR-4): 251 nM
- GI50 (OVCAR-5): 479 nM
- GI50 (IGROV-1): 200 nM
- GI50 (OVCAR-3): 316 nM
- GI50 (UACC-257): 339 nM
- GI50 (UACC-62): 251 nM
- GI50 (SK-MEL-28): 204 nM
- GI50 (SK-MEL-5): 324 nM
- GI50 (M14): 316 nM
- GI50 (SK-MEL-2): 398 nM
- GI50 (LOX IMVI): 158 nM
- GI50 (Malme-3M): 389 nM
- GI50 (SNB-75): 200 nM
- GI50 (U-251): 200 nM
- GI50 (SF-539): 200 nM
- GI50 (SNB-19): 331 nM
- GI50 (SF-295): 263 nM
- GI50 (SW-620): 339 nM
- GI50 (SF-268): 200 nM
- GI50 (HT-29): 282 nM
- GI50 (KM12): 398 nM
- GI50 (HCT-116): 158 nM
- GI50 (HCT-15): 100 nM
- GI50 (HCC 2998): 224 nM
- GI50 (NCI-H522): 251 nM
- GI50 (COLO 205): 275 nM
- GI50 (NCI-H460): 204 nM
- GI50 (NCI-H23): 417 nM
- GI50 (NCI-H322M): 316 nM
- GI50 (HOP-92): 676 nM
- GI50 (NCI-H226): 331 nM
- GI50 [2]: 195 nM
- GI50 (HOP-62): 251 nM
- GI50 (SR): 251 nM
- GI50 (A549): 331 nM
- GI50 (RPMI-8226): 126 nM
- GI50 (K562): 66.1 nM
- GI50 (MOLT-4): 162 nM
- GI50 (CCRF-CEM): 120 nM
- GI50 (HL-60(TB)): 251 nM

Compound: CCN(CC)c1ccc(/C=N/NC(=O)c2cccc(Nc3ccnc(C(F)(F)F)c3)c2)c(O)c1
- GI50 (CAKI-1): 200 nM
- GI50 (T47D): 631 nM
- GI50 (BT-549): 501 nM
- GI50 [1]: 182 nM
- GI50 (MDA-MB-435): 339 nM
- GI50 (NCI/ADR-RES): 1000 nM
- GI50 (MDA-MB-231): 316 nM
- GI50 (DU-145): 251 nM
- GI50 (MCF7): 245 nM
- GI50 (UO-31): 166 nM
- GI50 (PC-3): 741 nM
- GI50 (SN12C): 309 nM
- GI50 (TK-10): 501 nM
- GI50 (ACHN): 245 nM
- GI50 (RXF 393): 398 nM
- GI50 (A498): 479 nM
- GI50 (786-0): 240 nM
- GI50 (OVCAR-8): 398 nM
- GI50 (SK-OV-3): 407 nM
- GI50 (OVCAR-4): 158 nM
- GI50 (OVCAR-5): 501 nM
- GI50 (IGROV-1): 200 nM
- GI50 (OVCAR-3): 794 nM
- GI50 (UACC-257): 275 nM
- GI50 (UACC-62): 251 nM
- GI50 (SK-MEL-28): 115 nM
- GI50 (SK-MEL-5): 224 nM
- GI50 (M14): 229 nM
- GI50 (SK-MEL-2): 407 nM
- GI50 (LOX IMVI): 178 nM
- GI50 (Malme-3M): 339 nM
- GI50 (SNB-75): 257 nM
- GI50 (U-251): 200 nM
- GI50 (SF-539): 263 nM
- GI50 (SNB-19): 339 nM
- GI50 (SF-295): 324 nM
- GI50 (SW-620): 324 nM
- GI50 (SF-268): 100 nM
- GI50 (HT-29): 339 nM
- GI50 (KM12): 398 nM
- GI50 (HCT-116): 126 nM
- GI50 (HCT-15): 126 nM
- GI50 (HCC 2998): 182 nM
- GI50 (NCI-H522): 407 nM
- GI50 (COLO 205): 282 nM
- GI50 (NCI-H460): 200 nM
- GI50 (NCI-H23): 646 nM
- GI50 (NCI-H322M): 200 nM
- GI50 (HOP-92): 1000 nM
- GI50 (NCI-H226): 372 nM
- GI50 [2]: 224 nM
- GI50 (HOP-62): 251 nM
- GI50 (SR): 200 nM
- GI50 (A549): 389 nM
- GI50 (RPMI-8226): 158 nM
- GI50 (MOLT-4): 195 nM
- GI50 (CCRF-CEM): 141 nM
- GI50 (HL-60(TB)): 316 nM
